Target: SARS-CoV-2 Mpro (Severe acute respiratory syndrome coronavirus 2, UniProt P0DTD1)
Experiment: biochemical
Conditions: isolated compounds at 100 µg/mL; triplicate, mean (Figure 3)

C=C(C)[C@@H]1CC[C@]2(C(=O)O)CC[C@]3(C)[C@H](CC[C@@H]4[C@@]5(C)CC[C@H](O)C(C)(C)[C@@H]5CC[C@]43C)[C@@H]12 [V10, betulinic acid]
inhibition at 100 µg/mL: 0%

Reference: publication PMC13305993, “Bioassay-Guided Phytochemical Investigation of Vietnamese Vitex rotundifolia Leaves and the Liverwort Ptychanthus striatus as Sources of SARS-CoV-2 Main Protease Inhibitors” (Molecules, 2026)
